# Values quoted from earlier work, collected in paper PMC5354290 (PLoS ONE, 2017).
# Key:
# [1] = test system: rat model of formalin-induced pain; conditions: in vivo, iv
# [2] = test system: rat model of spared nerve injury; conditions: in vivo, iv
Compound,inhibition (in words) (rNaV1.3),inhibition (in words) (rNaV1.5),inhibition (in words) (rat NaV1.2),inhibition (in words) (rNaV1.4),"effective dose, times lower than those usually required for analgesia [1]","effective dose, times lower than those usually required for analgesia [2]"
Huwentoxin-IV [HwTx-IV],inhibits,far less potent,inhibits,far less potent,,
CN1CC[C@]23c4c5ccc(O)c4O[C@H]2[C@@H](O)C=C[C@H]3[C@H]1C5 [morphine],,,,,at least 20 times,at least 20 times
